Measured values reported in patent EP0250264A1, “Irreversible dopamine-Beta-hydroxylase inhibitors” (SMITHKLINE BECKMAN CORPORATION, priority 1986, dated 1987).

Columns and labels:
[1] = system: Spontaneously hypertensive rats; test: Mean arterial blood pressure in spontaneously hypertensive rats, monitored with indwelling tail artery cannulae; type: in vivo; conditions: 100 mg/kg intraperitoneally; for blood pressure reduction remaining at 260 minutes: 260 minutes after administration, b38 compares to vehicle-treated controls
Experimental: Spontaneously hypertensive rats were dosed with a suspension or solution of ß-ethynylbenzeneethanamine- methane sulfonate at a dose of 100 mg/kg intraperitoneally, and mean arterial blood pressure was monitored for 260 minutes using indwelling cannulae positioned in the tail arteries.
Blood pressure also was monitored in spontaneously hypertensive rats given 100 mg/kg intraperitoneally B-ethynyl-3-hydroxybenzeneethanamine hydrochloride.

[2] = target: T1, DBH (Homo sapiens, UniProt P09172); test: DBH inhibition assay, conversion of tyramine to octopamine (enzyme inhibition kinetic study); type: biochemical; conditions: enzyme incubated for up to 50 minutes with 10, 20, 40, or 80 µM concentrations
T1 sequence (P09172 1-617): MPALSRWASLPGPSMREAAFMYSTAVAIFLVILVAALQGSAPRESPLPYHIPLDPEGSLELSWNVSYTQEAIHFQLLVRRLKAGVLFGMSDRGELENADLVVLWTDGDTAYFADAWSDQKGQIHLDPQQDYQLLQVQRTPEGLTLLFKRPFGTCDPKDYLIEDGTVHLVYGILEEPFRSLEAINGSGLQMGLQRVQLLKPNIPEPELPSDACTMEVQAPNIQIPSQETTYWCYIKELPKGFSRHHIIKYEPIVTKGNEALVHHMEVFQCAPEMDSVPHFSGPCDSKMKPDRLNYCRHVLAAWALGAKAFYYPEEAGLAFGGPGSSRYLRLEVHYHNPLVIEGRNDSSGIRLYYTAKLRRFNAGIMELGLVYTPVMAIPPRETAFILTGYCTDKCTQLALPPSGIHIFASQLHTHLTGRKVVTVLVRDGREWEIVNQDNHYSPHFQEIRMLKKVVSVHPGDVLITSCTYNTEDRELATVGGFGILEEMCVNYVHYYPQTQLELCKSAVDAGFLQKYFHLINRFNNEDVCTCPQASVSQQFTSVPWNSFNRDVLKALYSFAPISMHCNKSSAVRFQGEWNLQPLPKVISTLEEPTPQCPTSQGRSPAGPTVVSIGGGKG
Experimental: DBH activity was assayed by a standard procedure for measuring the conversion of tyramine to octopamine in the presence of DBH. J.J. Pisano, et al., Biochim. Biophy. Acta, 43, 566-68 (1960). Octopamine was assayed following sodium periodate oxidation to p-hydroxybenzaldehyde by measuring spectrophotometric absorbance at 330 nm.
To measure DBH inhibition, the enzyme was incubated for up to 50 minutes with 10, 20, 40, or 80 µM concentrations of ß-ethynyl-4-hydroxybenzeneethanamine.

[3] = target: T1, DBH; conditions: cited from earlier work

## C#CC(CN)c1cccc(O)c1 (stereo not shown) [ß-Ethynyl-3-Hydrpxybenzeneethanamine]
[1]
  blood pressure reduction remaining at 260 minutes: approximately ten
[1]; forty minutes following compound administration
  blood pressure reductions: thirty

## C#CC(CN)c1ccc(O)cc1.Cl (stereo not shown) [ß-ethynyl-4-hydroxybenzeneethanamine, ß-Ethynyl-4-Hydroxybenzeneethanamine Hydrochloride]
[2]
  DBH inhibition: concentration- dependent DBH inhibition
  enzyme inhibition, dependence on time: time-dependent

## phenylpicolinic acid
[3]
  inhibitory activity relative to fusaric acid: twice the inhibitory activity of fusaric acid

## C#CC(CN)c1ccccc1.CS(=O)(=O)O (stereo not shown) [ß-ethynylbenzeneethanamine- methane sulfonate]
[1]
  blood pressure reduction remaining at 260 minutes: approximately twenty
[1]; twenty to forty minutes following administration
  reductions in blood pressure: approximately twenty
